Measured values from patent US20110009435A1, “HETERO BICYCLIC CARBOXAMIDE DERIVATIVES AND THEIR PHARMACEUTICAL USE AND COMPOSITIONS” (Pfizer, Inc., priority 2007, published 2011).

Assays:
Type in all cases: biochemical
Human recombinant MMP-7 = biological target: T1, Human recombinant MMP-7 (Homo sapiens, UniProt P09237); test: In vitro MMP inhibition assay, MMP-7 (fluorogenic peptide substrate cleavage, Ki); details: human MMP-7 (CD); read-out: hMMP Ki 07/CD
T1 construct: 07/CD; made in house
T1 sequence (P09237 95-267): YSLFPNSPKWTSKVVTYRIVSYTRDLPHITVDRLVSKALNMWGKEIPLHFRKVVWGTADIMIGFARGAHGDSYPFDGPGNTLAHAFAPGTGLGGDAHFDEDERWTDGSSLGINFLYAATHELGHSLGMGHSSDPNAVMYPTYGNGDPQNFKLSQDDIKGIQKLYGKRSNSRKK
Experimental: (§1) Matrix Metalloproteinase inhibitor compounds were analyzed in in vitro MMP Inhibition assays to determine their ability to inhibit the MMP cleavage of peptide substrates. Inhibition constants (Ki) were calculated from the assayed compound-MMP interactions.
(§2) Human recombinant MMP-1, MMP-2, MMP-3, MMP-7, MMP-9, MMP-12, MMP-13, MMP-14 and MMP-15 were used in these assays. The enzymes are prepared following known laboratory procedures. Protocols for the preparation and use of these enzymes are available in the scientific literature. See, e.g., Enzyme Nomenclature (Academic Press, San Diego, Calif., 1992) and the citations therein. See also Frije et al., J. Biol. Chem., 26(24), 16766-73 (1994).
The MMP-7 cDNA may be used to express the enzyme in E. coli inclusion bodies. Then the enzyme is solubilized in urea, purified on a preparative […] reverse phase HPLC column, and refolded in the presence of zinc acetate and purified for use. […]
(§3) The inhibitors are analyzed using a single low enzyme concentration with a single substrate concentration fixed at or below the Km. […] Apparent inhibitory constants are determined by non-linear regression of reaction velocity as a function of inhibitor and enzyme concentration using Morrison's equation, as described by Kuzmic, Anal. Biochem. 286, 45-50 (2000). […]

Human recombinant MMP-9 = biological target: T2, Human recombinant MMP-9 (Homo sapiens, UniProt P14780); test: In vitro MMP inhibition assay, MMP-9 (fluorogenic peptide substrate cleavage, Ki); details: human MMP-9, full length (FL); read-out: hMMP Ki 09/FL
T2 construct: made in house; host or cells: MMP-9-transfected HT1080 cells
T2 sequence (P14780 107-707 limits assumed): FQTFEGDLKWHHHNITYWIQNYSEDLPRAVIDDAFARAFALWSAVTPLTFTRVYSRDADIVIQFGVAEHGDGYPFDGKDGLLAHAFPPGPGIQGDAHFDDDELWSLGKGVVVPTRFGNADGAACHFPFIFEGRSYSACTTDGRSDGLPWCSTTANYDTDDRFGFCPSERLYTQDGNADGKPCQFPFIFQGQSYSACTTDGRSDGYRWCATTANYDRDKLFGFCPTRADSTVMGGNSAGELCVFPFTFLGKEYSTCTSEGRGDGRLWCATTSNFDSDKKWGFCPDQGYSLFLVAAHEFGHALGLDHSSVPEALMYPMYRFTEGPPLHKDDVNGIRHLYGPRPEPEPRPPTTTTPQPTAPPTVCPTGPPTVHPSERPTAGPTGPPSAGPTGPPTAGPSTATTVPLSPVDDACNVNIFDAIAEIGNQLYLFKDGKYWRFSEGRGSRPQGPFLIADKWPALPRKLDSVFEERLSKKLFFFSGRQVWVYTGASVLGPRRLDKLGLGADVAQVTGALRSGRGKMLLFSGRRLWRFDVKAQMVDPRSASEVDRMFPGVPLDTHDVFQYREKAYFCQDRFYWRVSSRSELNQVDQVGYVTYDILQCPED
Experimental: as §1, §2
(§4) The MMP-1 proenzyme may be purified from spent media of MMP-1-transfected HT-1080 cells and the protein purified on a zinc chelating column. The MMP-2 proenzyme may be purified by gelatin Sepharose chromatography from MMP-2-transfected p2AHT2 cells. […]
as §3

Human recombinant MMP-1 = biological target: T3, Human recombinant MMP-1 (Homo sapiens, UniProt P03956); test: In vitro MMP inhibition assay, MMP-1 (fluorogenic peptide substrate cleavage, Ki); details: human MMP-1, full length (FL); read-out: hMMP Ki 01/FL
T3 construct: made in house; host or cells: MMP-1-transfected HT-1080 cells
T3 sequence (P03956 100-469): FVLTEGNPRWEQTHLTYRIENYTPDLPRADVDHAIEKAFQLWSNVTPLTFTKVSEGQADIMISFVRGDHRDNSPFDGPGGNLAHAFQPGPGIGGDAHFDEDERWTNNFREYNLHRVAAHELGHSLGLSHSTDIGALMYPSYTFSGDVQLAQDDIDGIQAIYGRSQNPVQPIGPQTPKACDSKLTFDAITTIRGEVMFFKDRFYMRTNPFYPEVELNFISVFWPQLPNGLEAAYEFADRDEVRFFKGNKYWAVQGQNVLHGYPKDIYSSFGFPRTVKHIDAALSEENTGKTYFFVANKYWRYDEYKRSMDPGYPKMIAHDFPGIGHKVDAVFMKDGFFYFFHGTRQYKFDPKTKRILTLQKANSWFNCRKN
Experimental: as §1, §2, §4, §3

Measured: Ki

COc1cccc(CNC(=O)c2nc3ccc(F)c(OCCC4CCN(C(=O)CO)CC4)c3c(=O)[nH]2)c1 [Example 34, 6-fluoro-5-[2-(1-glycoloylpiperidin-4-yl)ethoxy]-N-(3-methoxybenzyl)-4-oxo-3,4-dihydroquinazoline-2-carboxamide]
> 10 µM: all assays above
